Experiment: gradient 5% acetonitrile 3 min, to 50% in 2 min, to 85% in 15 min, held 3 min, 100 µL/min
Conditions: column: Zorbax Extend-C18 2.1 x 50 mm; eluents: water / acetonitrile, 0.1% formic acid
Outline: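 Standards, all pure, were combined into mixtures of ~100 molecules and run at 100 μL/min on a Zorbax Extend-C18 column (2.1 × 50 mm, 1.8 μm) with water and acetonitrile, each containing 0.1% formic acid. A coupled quadrupole time-of-flight mass spectrometer operated in positive and negative ionization mode. Retention time values come from computationally picked adduct peaks, each inspected manually.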

SMILES	RP-LC retention time
Cc1ccc(-c2csc(Nc3ccc(Br)cn3)n2)cc1	1250 s
CCCN(CC1CCOC1)S(=O)(=O)c1ccccc1C(F)(F)F (configuration not stated)	946 s
Cc1ccc(NC(=O)N2CCc3nc[nH]c3C2)cc1Cl	612 s
CNC(=O)N1CCCN(S(C)(=O)=O)CC1	533 s
CCc1nc(-c2nnn(-c3ccc(C)cc3)c2C)no1	945 s
CS(=O)(=O)NCC1CCC(C(=O)NCCCn2ccnc2)CC1 (configuration not stated)	570 s
Cc1ccc(CN(C(=O)COc2cc(C)c(Cl)c(C)c2)C2CCS(=O)(=O)C2)o1 (configuration not stated)	1030 s
Cc1c(S(=O)(=O)NC2CC2)c(C)n(C)c1-c1nnc(C2CCC2)o1	787 s
Cc1ccccc1Nc1c(-c2ccc(N(C)C)cc2)nc2ccc(Cl)cn12	815 s
CC(C)C(=O)Nc1ccc(C(=O)NCCNS(=O)(=O)N(C)C)cc1	631 s
CCN(CC)S(=O)(=O)c1ccc2c(c1)CC(C(=O)NCCN1CCCCCC1)N2C(C)=O (configuration not stated)	631 s
COc1cc(=O)n2c(c1C(=O)NC1CCCCCC1)CCCC2	694 s
Cc1cc(Cl)ccc1OCC(=O)Nc1nc(-c2ccc(Br)cc2)cs1	1310 s
O=C(NC1CCCCC1N1C(=O)CSC1=O)c1ccc[nH]c1=O (configuration not stated)	606 s
COCC(=O)NC1CCC12CCN(C(=O)CC1CCCCC1)CC2 (configuration not stated)	778 s
CCN1CCCC1CNC(=O)CCc1cc2cc(C)ccc2[nH]c1=O (configuration not stated)	588 s
Cc1ccc(Nc2nc(C)cc(N3CCN(C(=O)Nc4ccc5c(c4)OCO5)CC3)n2)cc1	676 s
CNC(=O)[C@@H]1CN(C(=O)c2cscn2)C[C@H]1c1nc(COC)no1	582 s
CCCN1C(=O)COc2ccc(-c3noc(-c4ccc(N(C)C)cc4)n3)cc21	1280 s
CCC(CC)C(=O)N1CCN(c2nc(CN3CCOCC3)cs2)CC1	597 s
CCN1CCN(c2ncc3c(n2)CC(C)CC3=O)CC1 (configuration not stated)	575 s
COc1ccc(-c2nc(CCNS(=O)(=O)c3ccc(Cl)s3)cs2)cc1OC	918 s
COCCNc1c(C(=O)OC)c(=O)[nH]c2c(Cl)cccc12	645 s
Cc1nn2c(nnc3c(=O)n(CCc4c[nH]c5ccccc45)ccc32)c1-c1ccc(F)cc1	954 s
Cc1ccc(N2CCN(Cc3nc(-c4ccc(N5CCOCC5)nc4)no3)CC2)cc1	791 s

SMILES	RP-LC retention time
Cc1cc(Cl)ccc1-n1ncc2c(N3CCN(C)CC3)ncnc21	633 s
COCCN1CCC(N2CCCN(C(=O)Cc3c[nH]c4ccccc34)CC2)C1=O (configuration not stated)	576 s
COCCN(Cc1ccncc1)S(=O)(=O)c1ccc(-c2ccccc2)cc1	630 s
CN(C)CCCN1c2ccccc2Sc2ccc(C(F)(F)F)cc21	885 s
COc1ccc(NC(=O)c2cnc(N3CCN(C(C)C)CC3)nc2N)cc1	593 s
CCn1c(=O)c(C)nc2cc(-c3noc(-c4sccc4C)n3)ccc21	1080 s
CCN1CCN(C(=O)CN2C(=O)C3CCCCN3c3ccc(C(=O)N4CCCCC4)cc32)CC1 (configuration not stated)	632 s
Cc1ccc(NC(=O)NC2CCN(c3ccc(F)c(C)c3)C2=O)c(C)c1 (configuration not stated)	874 s
CCOC(=O)c1[nH]c(C)c(C(=O)C(C)N(CC(C)C)C(=O)c2ccc(Cl)cc2)c1C (configuration not stated)	1080 s
CN1C(=O)CCc2cc(C(=O)NC3CC3)ccc21	626 s
O=C(NC1CC1)C1CCCN(S(=O)(=O)c2c[nH]c(C(=O)N3CCCC3)c2)C1 (configuration not stated)	627 s
COc1ccc(CNS(=O)(=O)c2ccc3c(c2)CCCC(=O)N3)cc1	699 s
CCS(=O)(=O)c1ccc2c(c1)N(Cc1nc(-c3cccc(C)c3)no1)C(=O)CO2	926 s
COc1cc(NC(=O)N2CC(C)Oc3ccccc32)cc(OC)c1OC (configuration not stated)	862 s
O=C(NC1CCCC1)c1cccnc1N1CCOCC1	637 s
CCOC(=O)c1c(C)oc2nc(C)nc(NCCCN3CCN(c4ccc(F)cc4)CC3)c12	738 s
CCn1cc(S(=O)(=O)Nc2cccc(OC)c2)c2cccnc21	794 s
CCOc1ncccc1C(=O)NCc1cc(-c2cccs2)on1	831 s
CCCC(=O)Nc1ccc(S(=O)(=O)NCCn2ncccc2=O)cc1	612 s
CC1CCCN(CCCNC(=O)CCCn2c(=O)c3cccn3c3ccc(Br)cc32)C1 (configuration not stated)	677 s
O=C(Nc1ccc(F)cc1)OCCOc1ccc([N+](=O)[O-])cc1	1030 s
CCSc1nc2ccc(NS(=O)(=O)c3ccc(C)c(C)c3)cc2s1	1080 s
CCOC(=O)c1cc2c(cn1)[nH]c1ccccc12	691 s
Cc1cccc(CNC2=NCCNC23CCN(S(=O)(=O)c2ccc4c(c2)CCCC4)CC3)c1	854 s

Other lines, results leading:

RP-LC retention time	SMILES
597 s	CC(=O)Nc1c(C)nn(-c2ccccc2)c1N1CCC(C(=O)N2CCN(C3CCCCC3)CC2)CC1
869 s	O=C(O)C1CCN(c2nc3ccc(-c4ccccc4F)nc3s2)CC1
622 s	CC(=O)N1CCC([C@@H]2CN(C(=O)c3ccc(Br)o3)C[C@H]2CO)CC1
797 s	O=C(NC1CCN(c2cc(-c3cccs3)[nH]n2)C1)c1cc(F)ccc1Cl (configuration not stated)
986 s	COc1ccc(C)cc1NC(=O)C(C)C1CCN(C(=O)Nc2ccc(Cl)cc2)CC1 (configuration not stated)
678 s	Cc1cccc(N(C)C(=O)Cn2nc3nc(N4CCCC4)ccn3c2=O)c1
698 s	O=C(c1ccc2c(c1)N(Cc1ccccc1)CCS2)N1CCN(c2ccccn2)CC1
749 s	CCOC(=O)Cn1c(C2CC(=O)N(Cc3ccccc3)C2)nc2ccccc21 (configuration not stated)
659 s	CC(=O)Nc1nsc(N2CCC(C(=O)N3CCN(c4ccccc4)CC3)CC2)n1
878 s	Cc1ccc(NC(=O)C2CCN(C(=O)C3Sc4ccccc4NC3=O)CC2)cc1Cl (configuration not stated)
913 s	CCOC(=O)c1nc(Nc2ccccc2Cl)c2ccccc2n1
616 s	O=C(NCCN1CCOCC1)c1nc2ccccn2c1-c1ccc(F)cc1
710 s	COc1ccc(CNc2nc3ccncc3n(Cc3ccccc3)c2=O)cc1
960 s	O=C(NCc1ccccc1)c1nc(Cn2c(=O)oc3ccc(Cl)cc32)no1
868 s	CC(NC(=O)C1CCCN(c2ccc(=O)n(-c3cccc(F)c3)n2)C1)c1ccccc1 (configuration not stated)
971 s	O=C(Cn1ccc2ccccc21)NCc1ccc(OC(F)(F)F)cc1
865 s	CCn1cc(-c2nc(CC(=O)NCc3ccc(F)cc3)cs2)c2cccnc21
852 s	CCN(C(=O)Cc1csc2nc(-c3ccccc3)cn12)c1ccccc1
1070 s	O=C(c1cncc(Br)c1)N1CCc2cc(-c3csc(C4CC4)n3)ccc21
771 s	COc1ccc(C(CC(=O)N2CCCCC2)N2Cc3ccccc3C2=O)cc1OC (configuration not stated)
691 s	CC(=O)Nc1ccc(C2(C(=O)NCc3ccco3)CCC2)cc1
727 s	CCCNC(=O)C1CCCN(c2nc3ncn(CC(=O)Nc4c(C)cccc4CC)c(=O)c3s2)C1 (configuration not stated)

RP-LC retention time	SMILES
645 s	O=C1CN(C(=O)c2ccccc2F)c2ccccc2N1
902 s	COc1cccc(NC(=O)CN2C(=O)C3CCCCN3c3ccc(S(=O)(=O)N(C)C)cc32)c1 (configuration not stated)
843 s	O=C(NOCCc1ccccc1)Nc1ccc([N+](=O)[O-])cc1
733 s	O=C(Cn1nc2c3ccccc3ncn2c1=O)Nc1cccc(C(F)(F)F)c1
1080 s	CCc1ccc(Oc2cc(N3CCC(C(=O)NCCCc4ccccc4)CC3)ncn2)cc1
908 s	CCN1C(=O)C2CCCCN2c2ccc(C(=O)NCc3ccccc3)cc21 (configuration not stated)
866 s	Cc1ccccc1NC(=O)N(C)Cc1ccsc1
683 s	O=C(c1ccc(Cl)cc1)N1CCN(c2cnn3c(C4CC4)nnc3c2)CC1
766 s	CCc1cc(C2CCCN2C(=O)NCc2ccccc2)on1 (configuration not stated)
857 s	CCc1ccccc1NC(=O)Cn1c(NCCCc2ccccc2)nc(C)cc1=O
797 s	Cc1cc2c(c(=O)n(-c3ccccc3)c(=O)n2CC(=O)Nc2ccc(F)cc2)n1C
658 s	O=C(NCc1n[nH]c(=O)c2ccccc12)C(=O)N1CCN(c2ccccc2)CC1
909 s	O=C(CCc1nc(N2CCCCC2)c2c(-c3ccccc3)noc2n1)NC1CC1
971 s	O=C(CN1C(=O)C(C(=O)N2CCCC2)Sc2ccccc21)NCc1ccc(Br)cc1 (configuration not stated)
672 s	CN(Cc1ccco1)C(=O)c1ccc(-n2cc(CNC(=O)C3CCC3)cn2)cc1
574 s	CCC(C)NC(=O)C1CCN(CCc2cn(C)c3ncccc23)CC1 (configuration not stated)
767 s	O=C(Nc1nnc(Cc2ccccc2)s1)C1CCN(C(=O)c2ccccc2)CC1
735 s	CCC(=O)N1CCCn2nc(-c3cccc(F)c3)cc2C1
724 s	CNS(=O)(=O)c1ccc(C(=O)N2CCc3ccccc3C2)o1
830 s	CCn1cnc(S(=O)(=O)N2CCCC(C(=O)Nc3ccc(F)c(Cl)c3)C2)c1 (configuration not stated)
584 s	CCC(=O)N1CCCC1c1nc2ccccc2n1CC(=O)N1CCCC1 (configuration not stated)

— the METLIN SMRT retention time set (Domingo-Almenara et al. 2019)
